Measurements: PMC7360862, “Sub-Acute Treatment of Curcumin Derivative J147 Ameliorates Depression-Like Behavior Through 5-HT1A-Mediated cAMP Signaling” (Frontiers in Neuroscience, 2020)

Legend:
[1] = biological target: T1, 5-HT1B receptor (Mus musculus, UniProt P28334); assay: competitive radioligand binding, mouse frontal cortex membranes, reference antagonist measured in the same laboratory
T1 construct: gene Htr1b; native receptor in mouse frontal cortex membranes

[2] = biological target: T1, 5-HT1B receptor; assay: competitive radioligand binding, mouse frontal cortex membranes
[3] = biological target: T2, 5-HT1A receptor (Mus musculus, UniProt Q64264); assay: competitive radioligand binding ([3H]-8-OH-DPAT displacement), mouse frontal cortex membranes
T2 construct: gene Htr1a; native receptor in mouse frontal cortex membranes
T2 sequence (Q64264 1-421): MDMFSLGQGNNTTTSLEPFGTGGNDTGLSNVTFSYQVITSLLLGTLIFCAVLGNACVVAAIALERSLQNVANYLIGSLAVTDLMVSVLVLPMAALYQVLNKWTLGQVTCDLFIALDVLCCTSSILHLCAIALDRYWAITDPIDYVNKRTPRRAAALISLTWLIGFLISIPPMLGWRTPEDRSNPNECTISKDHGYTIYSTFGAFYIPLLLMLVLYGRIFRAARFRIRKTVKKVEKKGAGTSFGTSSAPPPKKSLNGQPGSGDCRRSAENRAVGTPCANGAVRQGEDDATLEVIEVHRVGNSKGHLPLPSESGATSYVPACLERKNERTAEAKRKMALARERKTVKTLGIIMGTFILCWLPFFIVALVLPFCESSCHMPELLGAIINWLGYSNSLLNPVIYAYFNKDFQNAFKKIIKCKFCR

T1 sequence (P28334 whole entry): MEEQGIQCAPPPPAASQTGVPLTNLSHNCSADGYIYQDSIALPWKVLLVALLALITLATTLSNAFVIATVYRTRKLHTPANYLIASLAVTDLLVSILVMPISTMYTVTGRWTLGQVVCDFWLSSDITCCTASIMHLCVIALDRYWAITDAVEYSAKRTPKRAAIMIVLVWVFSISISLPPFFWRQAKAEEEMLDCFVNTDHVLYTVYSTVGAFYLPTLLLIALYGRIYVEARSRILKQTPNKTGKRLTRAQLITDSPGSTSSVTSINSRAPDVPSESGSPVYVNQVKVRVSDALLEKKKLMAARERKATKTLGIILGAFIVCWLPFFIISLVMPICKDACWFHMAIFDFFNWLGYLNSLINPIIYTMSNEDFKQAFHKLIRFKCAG

Ki [2] | Ki [3] | SMILES | Ki [1]
– | – | COc1ccc(NC(=O)c2ccc(-c3ccc(-c4noc(C)n4)cc3C)cc2)cc1N1CCN(C)CC1 [GR-127935] | 1.29 nM
612 nM | 0.42 nM | COc1cccc(/C=N/N(C(=O)C(F)(F)F)c2ccc(C)cc2C)c1 [J147] | –
